Source: ChEMBL document CHEMBL1201862, “PubChem BioAssay data set” (2004)
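In this assay, cells in 96-well plates receive the compound at five concentrations for 48 hours. Endpoints are linearly interpolated between the surrounding concentrations. The concentration for 50% growth inhibition is given as GI50.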 Calls of active or inactive are those of the source. Rule as the data show it: active = GI50 up to about 1.1 µM and inactive = higher.

Assays:
Test in all cases: NCI tumour cell line growth inhibition, 48 h
[1] = tested on: RXF 393
[2] = tested on: HCT-15
[3] = tested on: DMS-273
[4] = tested on: SK-MEL-28
[5] = tested on: SK-OV-3
[6] = tested on: OVCAR-8
[7] = tested on: MOLT-4
[8] = tested on: KM-20L2
[9] = tested on: SK-MEL-2
[10] = tested on: CCRF-CEM
[11] = tested on: SW-620
[12] = tested on: OVCAR-3
[13] = tested on: COLO 205
[14] = tested on: XF498
[15] = tested on: OVCAR-5
[16] = tested on: TK-10
[17] = tested on: SNB-19
[18] = tested on: SF-268
[19] = tested on: 786-0
[20] = tested on: HL-60
[21] = tested on: NCI-H522
[22] = tested on: M14
[23] = tested on: KM12
[24] = tested on: RPMI-8226
[25] = tested on: HCC 2998
[26] = tested on: NCI-H460
[27] = tested on: OVCAR-4
[28] = tested on: NCI-H226
[29] = tested on: SN12C
[30] = tested on: HOP-62
[31] = tested on: Malme-3M
[32] = tested on: HOP-18
[33] = tested on: SNB-78
[34] = tested on: RXF 631
[35] = tested on: DMS-114
[36] = tested on: UACC-257
[37] = tested on: LXFL 529
[38] = tested on: HCT-116
[39] = tested on: SF-539
[40] = tested on: NCI-H23
[41] = tested on: U-251
[42] = tested on: DLD-1
[43] = tested on: CAKI-1
[44] = tested on: HT-29
[45] = tested on: M19-MEL
[46] = tested on: IGROV-1
[47] = tested on: UACC-62
[48] = tested on: ACHN
[49] = tested on: LOX IMVI
[50] = tested on: K562
[51] = tested on: SF-295
[52] = tested on: A549
[53] = tested on: HOP-92
[54] = tested on: EKVX
[55] = tested on: SR
[56] = tested on: SK-MEL-5
[57] = tested on: SNB-75

Q: How did the GI50 [1] turn out when `CC(=O)OC1COC(N2C(=O)C(=O)c3cc(Br)c([N+](=O)[O-])cc32)C(OC(C)=O)C1OC(C)=O` (configuration not stated) was run?
A: The GI50 was 32.1 µM (inactive).

Q: And the GI50 [2]?
A: The GI50 was > 100 µM.

Q: And the GI50 [3]?
A: The GI50 was > 100 µM (inactive).

Q: And the GI50 [4]?
A: The GI50 was 86.5 µM (inactive).

Q: And the GI50 [5]?
A: The GI50 was 96.8 µM (inactive).

Q: What about the GI50 [6] of the same molecule?
A: Its GI50 is 83.6 µM (inactive).

Q: And the GI50 [7]?
A: Its GI50 is 35 µM (inactive).

Q: What about the GI50 [8] of the same molecule?
A: Its GI50 is > 100 µM (inactive).

Q: And the GI50 [9]?
A: Its GI50 is > 100 µM (inactive).

Q: And the GI50 [10]?
A: The GI50 was 37.6 µM (inactive).

Q: And the GI50 [11]?
A: The GI50 was > 100 µM (inactive).

Q: What about the GI50 [12] of the same molecule?
A: Its GI50 is 48.2 µM (inactive).

Q: And the GI50 [13]?
A: The GI50 was > 100 µM (inactive).

Q: And the GI50 [14]?
A: Its GI50 is 35.9 µM (inactive).

Q: And the GI50 [15]?
A: Its GI50 is > 100 µM (inactive).

Q: What about the GI50 [16] of the same molecule?
A: The GI50 was > 100 µM (inactive).

Q: And the GI50 [17]?
A: Its GI50 is > 100 µM (inactive).

Q: And the GI50 [18]?
A: Its GI50 is 59.2 µM (inactive).

Q: And the GI50 [19]?
A: The GI50 was > 100 µM (inactive).

Q: What about the GI50 [20] of the same molecule?
A: The GI50 was 31 µM (inactive).

Q: And the GI50 [21]?
A: Its GI50 is 48.8 µM (inactive).

Q: What about the GI50 [22] of the same molecule?
A: Its GI50 is > 100 µM (inactive).

Q: What about the GI50 [23] of the same molecule?
A: The GI50 was > 100 µM (inactive).

Q: And the GI50 [24]?
A: The GI50 was > 100 µM (inactive).

Q: What about the GI50 [25] of the same molecule?
A: The GI50 was > 100 µM (inactive).

Q: What about the GI50 [26] of the same molecule?
A: Its GI50 is > 100 µM (inactive).

Q: What about the GI50 [27] of the same molecule?
A: The GI50 was 42.6 µM (inactive).

Q: And the GI50 [28]?
A: Its GI50 is > 100 µM (inactive).

Q: What about the GI50 [29] of the same molecule?
A: Its GI50 is > 100 µM (inactive).

Q: And the GI50 [30]?
A: Its GI50 is > 100 µM (inactive).

Q: What about the GI50 [31] of the same molecule?
A: Its GI50 is 71 µM (inactive).

Q: And the GI50 [32]?
A: The GI50 was > 100 µM (inactive).

Q: And the GI50 [33]?
A: The GI50 was > 100 µM (inactive).

Q: And the GI50 [34]?
A: The GI50 was 48.5 µM (inactive).

Q: What about the GI50 [35] of the same molecule?
A: The GI50 was 24.7 µM (inactive).

Q: And the GI50 [36]?
A: The GI50 was > 100 µM (inactive).

Q: What about the GI50 [37] of the same molecule?
A: The GI50 was 50.8 µM (inactive).

Q: And the GI50 [38]?
A: The GI50 was 77.3 µM (inactive).

Q: And the GI50 [39]?
A: Its GI50 is > 100 µM (inactive).

Q: And the GI50 [40]?
A: The GI50 was 55 µM (inactive).

Q: And the GI50 [41]?
A: The GI50 was > 100 µM (inactive).

Q: And the GI50 [42]?
A: The GI50 was 34.4 µM (inactive).

Q: And the GI50 [43]?
A: Its GI50 is > 100 µM (inactive).

Q: What about the GI50 [44] of the same molecule?
A: Its GI50 is > 100 µM (inactive).

Q: What about the GI50 [45] of the same molecule?
A: The GI50 was 21.2 µM (inactive).

Q: What about the GI50 [46] of the same molecule?
A: The GI50 was > 100 µM (inactive).

Q: What about the GI50 [47] of the same molecule?
A: Its GI50 is 49.3 µM (inactive).

Q: And the GI50 [48]?
A: Its GI50 is > 100 µM (inactive).

Q: What about the GI50 [49] of the same molecule?
A: Its GI50 is 30.2 µM (inactive).

Q: What about the GI50 [50] of the same molecule?
A: The GI50 was 26.2 µM (inactive).

Q: And the GI50 [51]?
A: The GI50 was > 100 µM (inactive).

Q: And the GI50 [52]?
A: The GI50 was > 100 µM (inactive).

Q: What about the GI50 [53] of the same molecule?
A: The GI50 was 34.8 µM (inactive).

Q: And the GI50 [54]?
A: The GI50 was 96.4 µM (inactive).

Q: What about the GI50 [55] of the same molecule?
A: The GI50 was 29.1 µM (inactive).

Q: What about the GI50 [56] of the same molecule?
A: The GI50 was > 100 µM (inactive).

Q: And the GI50 [57]?
A: Its GI50 is 22.5 µM (inactive).
